GI50 and TGI data for ten compounds are collected here from PubChem BioAssay (NCI).

Some test systems named below: MCF7 breast; RPMI-8226 leukemia; HS 578T breast; A498 renal; NCI/ADR-RES ovarian; K-562 leukemia; NCI-H226 lung; NCI-H23 lung; HCT-15 colon; SNB-75 CNS.
What all share (assay): inhibition of tumour cell growth, NCI panel, 48 h

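All cell lines were grown in 96-well plates and treated with compound for 48 hours. The concentration for 50% growth inhibition is given as GI50. Definition used: TGI = concentration required for complete inhibition of growth.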

For the compound `N#CC1=C(N)NC(=S)NC12Nc1ccccc1N2`, the GI50 in the test with MCF7 breast was 22.7 µM; in the test on RPMI-8226 leukemia it was 21.7 µM; with HS 578T breast, 68.9 µM; with A498 renal, 20 µM; with NCI/ADR-RES ovarian, 46.8 µM; in the test with K-562 leukemia, 28.1 µM. The GI50 is 20.6 µM in the test on NCI-H226 lung and 36.7 µM in the test with NCI-H23 lung. Moreover, the TGI in the test on MCF7 breast was greater than 100 µM; in the test with RPMI-8226 leukemia it was greater than 100 µM; in the test on HS 578T breast, greater than 100 µM; in the test with A498 renal it was 43.5 µM; in the test on NCI/ADR-RES ovarian, greater than 100 µM; in the test on K-562 leukemia, greater than 100 µM. Also, the values for the TGI in the test with NCI-H226 lung and in the test on NCI-H23 lung were 88.2 µM and greater than 100 µM, respectively.
For the compound `O=S(=O)(Nc1cc(Cl)ccc1Cl)c1ccc(-c2cnc(C3CC3)o2)cc1`, the GI50 in the test with MCF7 breast was 0.557 µM; with HCT-15 colon it was 0.608 µM; in the test on SNB-75 CNS it was 0.475 µM; in the test on RPMI-8226 leukemia, 2.44 µM; in the test with HS 578T breast, 0.701 µM; in the test on NCI/ADR-RES ovarian, 1.22 µM. Besides, the GI50 in the test on K-562 leukemia was 0.4 µM; with NCI-H226 lung it was 4.55 µM; in the test with NCI-H23 lung it was 2.84 µM. The TGI was greater than 100 µM in the test on MCF7 breast; greater than 100 µM in the test on HCT-15 colon; 3.88 µM in the test on SNB-75 CNS; greater than 100 µM with RPMI-8226 leukemia; 24 µM with HS 578T breast; 82.6 µM in the test with NCI/ADR-RES ovarian. The TGI was greater than 100 µM with K-562 leukemia, 38.6 µM with NCI-H226 lung and 67.2 µM in the test with NCI-H23 lung.
As to `CSc1ncnc2c1ncn2C1OC(CO)C(O)OC1O` (configuration not stated), the TGI in the test with MCF7 breast was greater than 100 µM; with HCT-15 colon it was greater than 100 µM; with SNB-75 CNS, 31.8 µM; in the test on RPMI-8226 leukemia, 79.5 µM; with HS 578T breast it was greater than 100 µM; in the test on A498 renal, greater than 53.1 µM. The TGI with NCI/ADR-RES ovarian was greater than 93.1 µM; in the test on K-562 leukemia it was 59.8 µM; in the test with NCI-H23 lung, greater than 44 µM.
Consider `COC1CC(NC(=O)C(F)(F)F)C(OC(C)=O)C(C)O1` (configuration not stated), for which the TGI with MCF7 breast, in the test with HCT-15 colon, in the test with SNB-75 CNS, in the test on RPMI-8226 leukemia, in the test with HS 578T breast and with NCI/ADR-RES ovarian was greater than 100 µM throughout. The TGI in the test on K-562 leukemia, in the test on NCI-H226 lung and in the test on NCI-H23 lung was greater than 100 µM throughout.
`Cc1ccc(-c2nc(N3CCCNCC3)c3oc(-c4ccccc4)nc3n2)cc1`: the GI50 is 1.59 µM in the test on MCF7 breast; 1.4 µM with HCT-15 colon; 1.41 µM in the test on SNB-75 CNS; 1.94 µM in the test on HS 578T breast; 1.66 µM in the test on A498 renal; 1.82 µM with NCI-H226 lung. The GI50 with NCI-H23 lung is 1.95 µM. The TGI was 3.44 µM with MCF7 breast; 2.77 µM in the test on HCT-15 colon; 2.73 µM with SNB-75 CNS; 4.22 µM in the test on HS 578T breast; 3.16 µM with A498 renal; 3.97 µM in the test with NCI-H226 lung. In the test with NCI-H23 lung, this compound returned a TGI of 3.71 µM.
On to `C=C(CN1CCN(c2cccc(C(F)(F)F)n2)CC1)c1ccc(C(=S)Nc2ccccc2N)cc1`, for which the GI50 with MCF7 breast was 2.87 µM; in the test with HCT-15 colon it was 4.11 µM; in the test on SNB-75 CNS it was 5.71 µM; with HS 578T breast it was 3.52 µM; in the test on A498 renal, 2.57 µM; with NCI/ADR-RES ovarian, 3.12 µM. For the same compound, the GI50 is 1.57 µM in the test on K-562 leukemia, 4.91 µM in the test with NCI-H226 lung and 2.81 µM in the test with NCI-H23 lung. For the same compound, the TGI was 14.5 µM in the test with MCF7 breast; greater than 100 µM in the test on HCT-15 colon; greater than 100 µM with SNB-75 CNS; greater than 100 µM in the test with HS 578T breast; greater than 100 µM in the test on A498 renal; greater than 100 µM in the test on NCI/ADR-RES ovarian. In addition, the TGI is 4.48 µM in the test with K-562 leukemia, greater than 100 µM with NCI-H226 lung and 8.85 µM in the test on NCI-H23 lung.
`O=C(/C(=C/c1ccc([N+](=O)[O-])cc1)SCc1ccc(F)cc1)c1ccc(Cl)cc1`: the GI50 with HCT-15 colon was 2.9 µM; with SNB-75 CNS, 73 µM; in the test with RPMI-8226 leukemia, 1.92 µM; in the test with HS 578T breast it was 3 µM; in the test on A498 renal, greater than 100 µM; with NCI/ADR-RES ovarian it was 4.57 µM. Also, the GI50 in the test with K-562 leukemia is 3.05 µM; in the test with NCI-H226 lung it was 13.7 µM; in the test on NCI-H23 lung, 11 µM. Besides, the TGI in the test on HCT-15 colon was 11.6 µM; in the test with SNB-75 CNS, greater than 100 µM; in the test with RPMI-8226 leukemia, 6.36 µM; in the test on HS 578T breast, 9.32 µM; in the test with A498 renal it was greater than 100 µM; in the test on NCI/ADR-RES ovarian, greater than 100 µM. For the same compound, the TGI in the test on K-562 leukemia was greater than 100 µM; with NCI-H226 lung, 44.5 µM; in the test with NCI-H23 lung it was 68.7 µM.
`CCOC(=O)C(C)(C)C(O)C(C)C` (configuration not stated): the TGI in the test with MCF7 breast, in the test with HCT-15 colon, in the test with SNB-75 CNS, in the test with RPMI-8226 leukemia, in the test with HS 578T breast and in the test with A498 renal was greater than 100 µM each time. Further, the TGI with NCI/ADR-RES ovarian, in the test with K-562 leukemia and in the test on NCI-H23 lung was greater than 100 µM each time.
As for `O=c1c2c3c(sc2nc(N/N=C/c2ccc(Br)cc2)n1Cc1ccccc1)CCCC3`, the GI50 in the test on MCF7 breast was 5.63 µM; in the test with HCT-15 colon, 8.98 µM; in the test on SNB-75 CNS, 3.33 µM; in the test with HS 578T breast, greater than 100 µM; in the test with A498 renal it was greater than 100 µM; in the test on NCI/ADR-RES ovarian, greater than 100 µM. The GI50 in the test with K-562 leukemia was 4.1 µM; in the test on NCI-H226 lung, 37.4 µM; in the test with NCI-H23 lung it was greater than 100 µM. Further, the TGI in the test with MCF7 breast, in the test with HCT-15 colon, in the test on SNB-75 CNS, with HS 578T breast, in the test with A498 renal and in the test on NCI/ADR-RES ovarian was greater than 100 µM each time. Moreover, the TGI in the test with K-562 leukemia, with NCI-H226 lung and with NCI-H23 lung was greater than 100 µM each time.
With `O=C(CCC(C(=O)c1ccccc1)c1ccccc1)c1ccccc1` (configuration not stated), the GI50 was 15.1 µM in the test on MCF7 breast; 4.92 µM in the test on HCT-15 colon; 27.2 µM in the test on SNB-75 CNS; 5.75 µM in the test with RPMI-8226 leukemia; 11.8 µM with HS 578T breast; 1.44 µM in the test on A498 renal. Besides, the values for the GI50 in the test on NCI/ADR-RES ovarian, with K-562 leukemia and with NCI-H23 lung were 4.74 µM, 3.75 µM and 10.8 µM, respectively. Moreover, the TGI with MCF7 breast is greater than 100 µM; in the test on HCT-15 colon, greater than 100 µM; in the test with SNB-75 CNS it was greater than 100 µM; with RPMI-8226 leukemia, 76.1 µM; in the test on HS 578T breast, greater than 100 µM; in the test with A498 renal it was 58.1 µM. Besides, the TGI with NCI/ADR-RES ovarian, with K-562 leukemia and in the test on NCI-H23 lung was greater than 100 µM each time.
